Experimental data reported in the supplement of paper PMC11451515.

Test system: SEM cells
Assay: cell viability relative to DMSO control; higher = less cytotoxic
Details: 48 h
How it was run: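 Leukemia cells (NOMO1 or SEM, 500 cells/well; P12-Ichikawa, 1000 cells/well) were seeded in 5 μl in 1536-well plates after at least four passages of adaptation to each medium. They received library compounds in DMSO by pin dosing, 11 threefold points from 47 μM to 0.79 nM. Luminescence with CellTiter-Glo One was read after 48 h at 37°C. Viability is stated per plate relative to DMSO wells, with cell-free wells as background.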

[1] = HPLM + 10% dialyzed FBS, 0.000781 µM
[2] = HPLM + 10% dialyzed FBS, 0.00234 µM
[3] = HPLM + 10% dialyzed FBS, 0.00702 µM
[4] = HPLM + 10% dialyzed FBS, 0.0211 µM
[5] = HPLM + 10% dialyzed FBS, 0.0632 µM
[6] = HPLM + 10% dialyzed FBS, 0.19 µM
[7] = HPLM + 10% dialyzed FBS, 0.569 µM
[8] = HPLM + 10% dialyzed FBS, 1.71 µM
[9] = HPLM + 10% dialyzed FBS, 5.12 µM
[10] = HPLM + 10% dialyzed FBS, 15.4 µM
[11] = HPLM + 10% dialyzed FBS, 46.1 µM
[12] = RPMI 5 mM glucose + 10% FBS, 0.000781 µM
[13] = RPMI 5 mM glucose + 10% FBS, 0.00234 µM
[14] = RPMI 5 mM glucose + 10% FBS, 0.00702 µM
[15] = RPMI 5 mM glucose + 10% FBS, 0.0211 µM
[16] = RPMI 5 mM glucose + 10% FBS, 0.0632 µM
[17] = RPMI 5 mM glucose + 10% FBS, 0.19 µM
[18] = RPMI 5 mM glucose + 10% FBS, 0.569 µM
[19] = RPMI 5 mM glucose + 10% FBS, 1.71 µM
[20] = RPMI 5 mM glucose + 10% FBS, 5.12 µM
[21] = RPMI 5 mM glucose + 10% FBS, 15.4 µM
[22] = RPMI 5 mM glucose + 10% FBS, 46.1 µM
[23] = RPMI 5 mM glucose + 10% dialyzed FBS, 0.000781 µM
[24] = RPMI 5 mM glucose + 10% dialyzed FBS, 0.00234 µM
[25] = RPMI 5 mM glucose + 10% dialyzed FBS, 0.00702 µM
[26] = RPMI 5 mM glucose + 10% dialyzed FBS, 0.0211 µM
[27] = RPMI 5 mM glucose + 10% dialyzed FBS, 0.0632 µM
[28] = RPMI 5 mM glucose + 10% dialyzed FBS, 0.19 µM
[29] = RPMI 5 mM glucose + 10% dialyzed FBS, 0.569 µM
[30] = RPMI 5 mM glucose + 10% dialyzed FBS, 1.71 µM
[31] = RPMI 5 mM glucose + 10% dialyzed FBS, 5.12 µM
[32] = RPMI 5 mM glucose + 10% dialyzed FBS, 15.4 µM
[33] = RPMI 5 mM glucose + 10% dialyzed FBS, 46.1 µM

Structure (SMILES) | cell viability [1] [%] | cell viability [2] [%] | cell viability [3] [%] | cell viability [4] [%] | cell viability [5] [%] | cell viability [6] [%] | cell viability [7] [%] | cell viability [8] [%] | cell viability [9] [%] | cell viability [10] [%] | cell viability [11] [%] | cell viability [12] [%] | cell viability [13] [%] | cell viability [14] [%] | cell viability [15] [%] | cell viability [16] [%] | cell viability [17] [%] | cell viability [18] [%] | cell viability [19] [%] | cell viability [20] [%] | cell viability [21] [%] | cell viability [22] [%] | cell viability [23] [%] | cell viability [24] [%] | cell viability [25] [%] | cell viability [26] [%] | cell viability [27] [%] | cell viability [28] [%] | cell viability [29] [%] | cell viability [30] [%] | cell viability [31] [%] | cell viability [32] [%] | cell viability [33] [%]
COC1=CC=C2/C3=N/CCN3\C(=N/C2=C1OC)NC(=O)C4=CC=CN=C4 | 98.5 | 98.2 | 106 | 96.8 | 101 | 104 | 96.7 | 103 | 87.1 | 82.5 | 64.1 | 91.6 | 94.4 | 99.7 | 89.5 | 99.5 | 79.4 | 85.2 | 99.6 | 76.6 | 80.6 | 55.7 | 122 | 111 | 111 | 103 | 117 | 113 | 99 | 92.9 | 84 | 81.1 | 69.2
CC(C)[C@H](N)C(=O)OCCOC[N]1C=NC2=C1\N=C(N)/NC2=O | 92.4 | 101 | 119 | 127 | 121 | 117 | 119 | 116 | 103 | 115 | 107 | 80.4 | 85.4 | 104 | 109 | 116 | 95.3 | 102 | 90.5 | 92.7 | 98.7 | 78 | 107 | 112 | 126 | 134 | 122 | 123 | 126 | 166 | 112 | 133 | 99
Cn1cc(C[C@@H](N)C(=O)O)c2ccccc21 | 92 | 105 | 95.8 | 113 | 112 | 121 | 112 | 111 | 101 | 92.3 | 76.7 | 80 | 50.1 | 79.6 | 94 | 89.8 | 96.4 | 91.1 | 97.9 | 107 | 80.9 | 62.7 | 114 | 92.1 | 102 | 106 | 97.7 | 108 | 98.8 | 97 | 102 | 96.3 | 70
COc1cc(/C=C/C(=O)O)ccc1O | 80.5 | 92.9 | 64.5 | 93.6 | 92.8 | 90.1 | 91.9 | 106 | 44.8 | 89.9 | 100 | 94.1 | 89 | 62.1 | 84.1 | 99.5 | 94.9 | 101 | 101 | 37.5 | 88.4 | 98.1 | 93.4 | 99.2 | 68.6 | 110 | 115 | 106 | 109 | 104 | 46 | 105 | 106
OCCC#Cc1nc(-c2ccc(F)cc2)c(-c2ccncc2)n1CCCc1ccccc1 | 86.8 | 115 | 115 | 120 | 118 | 109 | 131 | 123 | 124 | 105 | 88.4 | 98.3 | 122 | 112 | 118 | 103 | 130 | 116 | 127 | 126 | 107 | 85.8 | – | – | – | – | – | – | – | – | – | – | –
CN(C)C(=O)C(CCN1CCC(O)(c2ccc(Cl)cc2)CC1)(c1ccccc1)c1ccccc1 | 68.1 | 109 | 117 | 130 | 127 | 121 | 122 | 117 | 108 | 86.6 | 23.5 | 57.8 | 108 | 141 | 127 | 114 | 127 | 140 | 117 | 110 | 75.5 | 10.3 | – | – | – | – | – | – | – | – | – | – | –
Cc1c[nH]c(-c2cnc(NCCNc3ccc(C#N)cn3)nc2-c2ccc(Cl)cc2Cl)n1 | 62.7 | 74.5 | 62 | 65.9 | 65.2 | 70.5 | 45.3 | 71.5 | 19.6 | 26.8 | 2.9 | 74.9 | 93.6 | 70.9 | 87.6 | 85.2 | 101 | 66.9 | 86.4 | 34.9 | 68.8 | 4.99 | 70.2 | 80.9 | 59.9 | 67 | 69.6 | 72.2 | 52.9 | 84 | 24 | 33.7 | 3.76
C[C@]12CCC\3=C\4CCC(=O)\C=C4CC[C@H]3[C@@H]1CC[C@@]2(O)CC#N | 97.2 | 103 | 123 | 97 | 124 | 118 | 121 | 144 | 137 | 132 | 115 | 117 | 124 | 116 | 88.3 | 143 | 116 | 138 | 130 | 146 | 139 | 128 | – | – | – | – | – | – | – | – | – | – | –
